Data from patent US8048840B2, “Ether compound” (Kao Corporation, priority 2007, dated 2011).

Experiment: Emulsification of a mixture of water and oil
Format: physicochemical
Conditions: with addition of the compound
From the text: Therefore, it is understood that the novel ether compound of the present invention has good water-solubility. It was confirmed that a mixture of water and oil was emulsified with addition of the compound a1-1.

emulsification of a mixture of water and oil: emulsified
Substance: dendrimer type tetraglycidyl polylauryl ether [a1-1]
